# In patent US8344009B2, “Substituted phenoxy thiazolidinediones as estrogen related receptor-á modulators” (priority 2007, dated 2013):
# Target: T1, ERR1 (also known as ERR-α or ERR-1) (Homo sapiens, UniProt P11474)
# T1 sequence (P11474 193-421 limits assumed): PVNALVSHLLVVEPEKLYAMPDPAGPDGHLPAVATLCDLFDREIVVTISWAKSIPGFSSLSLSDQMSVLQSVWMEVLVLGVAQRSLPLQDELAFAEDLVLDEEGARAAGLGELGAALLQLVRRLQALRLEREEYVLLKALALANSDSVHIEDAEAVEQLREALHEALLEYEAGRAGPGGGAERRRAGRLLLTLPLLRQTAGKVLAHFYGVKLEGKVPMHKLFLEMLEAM
# Assay: TR-FRET assay (disruption of co-activator peptide binding to ERR1 LBD)
# Type: biochemical
# Settings: not given
# Procedure: Time-Resolved Fluorescence Resonance Energy Transfer (TR-FRET) experiments were performed to examine the functional response of ERR1 (also known as ERR-α or ERR-1) ligands. The TR-FRET assay described herein relied on the conformation of ERR1 for binding to a co-activator peptide: when a test compound binds to ERR1 and alters its conformation, it can disrupt the binding of the co-activator peptide. The components of this homogeneous secondary assay included: the ^6His-tagged-ERR1LBD, a GST-labeled-hSRC2 co-activator polypeptide and a fluorescent donor/acceptor pair from CIS bio international htrf/bioassays (Bedford, Mass.) using both an α-GST Europium Cryptate (Eu) label and an α^6His-XL665 (allophycocyanin) fluorophore.
# Reactions were allowed to reach equilibrium at 25° C. for 4-18 hours before collecting data on the Analyst from LJL Biosystems (Molecular Devices Sunnyvale, Calif.). […] Dose response curves were fitted using a hyperbolic equation and the data reported is the average of 3 independent experiments.
row,EC50,SMILES
1,130 nM,"COc1cc(/C=C2\SC(=O)NC2=O)ccc1Oc1ccc(C(F)(F)F)cc1Cl [Compound 2, 5-[4-(2-Chloro-4-trifluoromethyl-phenoxy)-3-methoxy-benzylidene]-thiazolidine-2,4-dione]"
2,550 nM,"COc1cc(/C=C2\SC(=O)NC2=O)ccc1Oc1ccc(C(F)(F)F)cc1C#N [Compound 8, 2-[4-(2,4-Dioxo-thiazolidin-5-ylidenemethyl)-2-methoxy-phenoxy]-5-trifluoromethyl-benzonitrile]"
3,480 nM,"COC(=O)c1cc(C(F)(F)F)ccc1Oc1ccc(/C=C2\SC(=O)NC2=O)cc1OC [Compound 9, 2-[4-(2,4-Dioxo-thiazolidin-5-ylidenemethyl)-2-methoxy-phenoxy]-5-trifluoromethyl-benzoic acid methyl ester]"
4,12 nM,"COC(=O)c1ccc(Oc2ccc(/C=C3\SC(=O)NC3=O)cc2OC)c(C(F)(F)F)c1 [Compound 10, 4-[4-(2,4-Dioxo-thiazolidin-5-ylidenemethyl)-2-methoxy-phenoxy]-3-trifluoromethyl-benzoic acid methyl ester]"
5,120 nM,"COc1cc(/C=C2\SC(=O)NC2=O)ccc1Oc1ccc(C#N)c2ccccc12 [Compound 19, 4-[4-(2,4-Dioxothiazolidin-5-ylidenemethyl)-2-methoxyphenoxy]naphthalene-1-carbonitrile]"
6,380 nM,"COc1cc(/C=C2\SC(=O)NC2=O)ccc1Oc1ccc(C(F)(F)F)cc1Br [Compound 20, 5-[4-(2-Bromo-4-trifluoromethylphenoxy)-3-methoxybenzylidene]thiazolidine-2,4-dione]"
7,430 nM,"COc1cc(/C=C2\SC(=O)NC2=O)ccc1Oc1ccc(C#N)cc1Cl [Compound 21, 3-Chloro-4-[4-(2,4-dioxothiazolidin-5-ylidenemethyl)-2-methoxyphenoxy]benzonitrile]"
8,480 nM,"COc1cc(/C=C2\SC(=O)NC2=O)ccc1Oc1ccc(C#N)cc1Br [Compound 22, 3-Bromo-4-[4-(2,4-dioxothiazolidin-5-ylidenemethyl)-2-methoxyphenoxy]benzonitrile]"
9,1 nM,COC(=O)c1ccc(Oc2ccc(/C=C3\SC(=O)NC3=O)cc2OC)c2ccccc12 [Compound 24]

# Same assay, conditions: average of 3 independent experiments; read-out: TR-FRET EC50
row,EC50,SMILES
1,1030 nM,"COc1cc(/C=C2\SC(=O)NC2=O)ccc1Oc1ccc(S(C)(=O)=O)cc1Br [Compound 3, 5-[4-(2-Bromo-4-methanesulfonyl-phenoxy)-3-methoxy-benzylidene]-thiazolidine-2,4-dione]"
2,550 nM,"COc1cc(/C=C2\SC(=O)NC2=O)ccc1Oc1ccc(S(C)(=O)=O)cc1Cl [Compound 4, 5-[4-(2-Chloro-4-methanesulfonyl-phenoxy)-3-methoxy-benzylidene]-thiazolidine-2,4-dione]"
3,570 nM,"COc1cc(/C=C2\SC(=O)NC2=O)ccc1Oc1ccc(Br)cc1C(F)(F)F [Compound 5, 5-[4-(4-Bromo-2-trifluoromethyl-phenoxy)-3-methoxy-benzylidene]-thiazolidine-2,4-dione]"
4,510 nM,"COc1cc(/C=C2\SC(=O)NC2=O)ccc1Oc1ccc(C(N)=O)cc1C(F)(F)F [Compound 6, 4-[4-(2,4-Dioxo-thiazolidin-5-ylidenemethyl)-2-methoxy-phenoxy]-3-trifluoromethyl-benzamide]"
5,480 nM,"Cc1cc(/C=C2\SC(=O)NC2=O)ccc1Oc1ccc(C#N)c2ccccc12 [Compound 11, 4-[4-(2,4-Dioxo-thiazolidin-5-ylidenemethyl)-2-methyl-phenoxy]-naphthalene-1-carbonitrile]"
6,150 nM,"N#Cc1ccc(Oc2ccc(/C=C3\SC(=O)NC3=O)cc2F)c(C(F)(F)F)c1 [Compound 12, 4-[4-(2,4-Dioxo-thiazolidin-5-ylidenemethyl)-2-fluoro-phenoxy]-3-trifluoromethyl-benzonitrile]"
7,180 nM,"CCOc1cc(/C=C2\SC(=O)NC2=O)ccc1Oc1ccc(C#N)cc1C(F)(F)F [Compound 13, 4-[4-(2,4-Dioxo-thiazolidin-5-ylidenemethyl)-2-ethoxy-phenoxy]-3-trifluoromethyl-benzonitrile]"
8,200 nM,"Cc1cc(/C=C2\SC(=O)NC2=O)ccc1Oc1ccc(C#N)cc1C(F)(F)F [Compound 14, 4-[4-(2,4-Dioxo-thiazolidin-5-ylidenemethyl)-2-methyl-phenoxy]-3-trifluoromethyl-benzonitrile]"
9,37 nM,"CCOc1cc(/C=C2\SC(=O)NC2=O)ccc1Oc1ccc(C#N)c2ccccc12 [Compound 15, 4-[4-(2,4-Dioxo-thiazolidin-5-ylidenemethyl)-2-ethoxy-phenoxy]-naphthalene-1-carbonitrile]"
10,600 nM,"N#Cc1ccc(Oc2ccc(/C=C3\SC(=O)NC3=O)cc2Br)c(C(F)(F)F)c1 [Compound 16, 4-[2-Bromo-4-(2,4-dioxo-thiazolidin-5-ylidenemethyl)-phenoxy]-3-trifluoromethyl-benzonitrile]"
11,100 nM,"N#Cc1ccc(Oc2ccc(/C=C3\SC(=O)NC3=O)cc2F)c2ccccc12 [Compound 17, 4-[4-(2,4-Dioxo-thiazolidin-5-ylidenemethyl)-2-fluoro-phenoxy]-naphthalene-1-carbonitrile]"
12,520 nM,"N#Cc1ccc(Oc2ccc(/C=C3\SC(=O)NC3=O)cc2Cl)c(C(F)(F)F)c1 [Compound 18, 4-[2-Chloro-4-(2,4-dioxo-thiazolidin-5-ylidenemethyl)-phenoxy]-3-trifluoromethyl-benzonitrile]"
13,480 nM,"COc1cc(/C=C2\OC(=O)NC2=O)ccc1Oc1ccc(C#N)c2ccccc12 [Compound 23, 4-[4-(2,4-Dioxo-oxazolidin-5-ylidenemethyl)-2-methoxy-phenoxy]-naphthalene-1-carbonitrile]"
14,1000 nM,"N#Cc1ccc(Oc2ccc(/C=C3\SC(=O)NC3=O)cc2C(F)(F)F)c(C(F)(F)F)c1 [Compound 26, 4-[4-(2,4-Dioxo-thiazolidin-5-ylidenemethyl)-2-trifluoromethyl-phenoxy]-3-trifluoromethyl-benzonitrile]"
15,330 nM,"CCOc1cc(/C=C2\SC(=O)NC2=O)ccc1Oc1ccc(C(N)=O)cc1C(F)(F)F [Compound 27, 4-[4-(2,4-Dioxo-thiazolidin-5-ylidenemethyl)-2-ethoxy-phenoxy]-3-trifluoromethyl-benzamide]"
16,440 nM,"Cc1cc(/C=C2\SC(=O)NC2=O)ccc1Oc1ccc(C(N)=O)cc1C(F)(F)F [Compound 28, 4-[4-(2,4-Dioxo-thiazolidin-5-ylidenemethyl)-2-methyl-phenoxy]-3-trifluoromethyl-benzamide]"
17,180 nM,"N#Cc1ccc(Oc2ccc(/C=C3\SC(=O)NC3=O)cc2OC(F)(F)F)c(C(F)(F)F)c1 [Compound 29, 4-[4-(2,4-Dioxo-thiazolidin-5-ylidenemethyl)-2-trifluoromethoxy-phenoxy]-3-trifluoromethyl-benzonitrile]"
18,8 nM,"COc1cc(/C=C2\SC(=O)NC2=O)ccc1Oc1ccc(Cl)cc1C(F)(F)F [Compound 30, 5-[4-(4-Chloro-2-trifluoromethyl-phenoxy)-3-methoxy-benzylidene]-thiazolidine-2,4-dione]"
19,33 nM,"O=C1NC(=O)/C(=C/c2ccc(Oc3ccc(Cl)cc3C(F)(F)F)c(F)c2)S1 [Compound 31, 5-[4-(4-Chloro-2-trifluoromethyl-phenoxy)-3-fluoro-benzylidene]thiazolidine-2,4-dione]"
